From PubChem BioAssay AID1259407 (Chemical Carcinogenesis Research Information System (CCRIS), 2018)
Active and inactive are the calls of the source. No rule for the calls is given here.

System: CCRIS mutagenicity, Ames/micronucleus/aberration tests
Assay: CCRIS mutagenicity studies
[1] = Test System: AMES SALMONELLA TYPHIMURIUM, Strain/Indicator: TA98, Metabolic Activation: NONE, Method: STANDARD PLATE
[2] = Test System: AMES SALMONELLA TYPHIMURIUM, Strain/Indicator: TA98, Metabolic Activation: RAT, LIVER, S-9, AROCLOR 1254, Method: STANDARD PLATE
[3] = Test System: AMES SALMONELLA TYPHIMURIUM, Strain/Indicator: TA100, Metabolic Activation: NONE, Method: STANDARD PLATE
[4] = Test System: AMES SALMONELLA TYPHIMURIUM, Strain/Indicator: TA100, Metabolic Activation: RAT, LIVER, S-9, AROCLOR 1254, Method: STANDARD PLATE
[5] = Test System: AMES SALMONELLA TYPHIMURIUM, Strain/Indicator: TA1535, Metabolic Activation: NONE, Method: STANDARD PLATE
[6] = Test System: AMES SALMONELLA TYPHIMURIUM, Strain/Indicator: TA1535, Metabolic Activation: RAT, LIVER, S-9, AROCLOR 1254, Method: STANDARD PLATE
[7] = Test System: AMES SALMONELLA TYPHIMURIUM, Strain/Indicator: TA1537, Metabolic Activation: NONE, Method: STANDARD PLATE
[8] = Test System: AMES SALMONELLA TYPHIMURIUM, Strain/Indicator: TA1537, Metabolic Activation: RAT, LIVER, S-9, AROCLOR 1254, Method: STANDARD PLATE
[9] = Test System: AMES SALMONELLA TYPHIMURIUM, Strain/Indicator: TA1538, Metabolic Activation: NONE, Method: STANDARD PLATE
[10] = Test System: AMES SALMONELLA TYPHIMURIUM, Strain/Indicator: TA1538, Metabolic Activation: RAT, LIVER, S-9, AROCLOR 1254, Method: STANDARD PLATE

Measured: mutagenic call

Cc1ccc(N)c(S(=O)(=O)O)c1
inactive: Test System: AMES SALMONELLA TYPHIMURIUM, Strain/Indicator: TA98, Metabolic Activation: HAMSTER, LIVER, S-9, AROCLOR 1254, Method: STANDARD PLATE inactive; negative | Test System: AMES SALMONELLA TYPHIMURIUM, Strain/Indicator: TA98, Metabolic Activation: NONE, Method: PREINCUBATION inactive; negative | [1] inactive; negative | Test System: AMES SALMONELLA TYPHIMURIUM, Strain/Indicator: TA98, Metabolic Activation: RAT LIVER S-9, PHENOBARBITAL AND BETA-NAPHTHOFLAVONE, Method: PREINCUBATION inactive; negative | [2] inactive; negative | Test System: AMES SALMONELLA TYPHIMURIUM, Strain/Indicator: TA100, Metabolic Activation: HAMSTER, LIVER, S-9, AROCLOR 1254, Method: STANDARD PLATE inactive; negative | Test System: AMES SALMONELLA TYPHIMURIUM, Strain/Indicator: TA100, Metabolic Activation: NONE, Method: PREINCUBATION inactive; negative | [3] inactive; negative | Test System: AMES SALMONELLA TYPHIMURIUM, Strain/Indicator: TA100, Metabolic Activation: RAT LIVER S-9, PHENOBARBITAL AND BETA-NAPHTHOFLAVONE, Method: PREINCUBATION inactive; negative | [4] inactive; negative | Test System: AMES SALMONELLA TYPHIMURIUM, Strain/Indicator: TA102, Metabolic Activation: NONE, Method: PREINCUBATION inactive; negative | Test System: AMES SALMONELLA TYPHIMURIUM, Strain/Indicator: TA102, Metabolic Activation: RAT LIVER S-9, PHENOBARBITAL AND BETA-NAPHTHOFLAVONE, Method: PREINCUBATION inactive; negative | Test System: AMES SALMONELLA TYPHIMURIUM, Strain/Indicator: TA104, Metabolic Activation: NONE, Method: PREINCUBATION inactive; negative | Test System: AMES SALMONELLA TYPHIMURIUM, Strain/Indicator: TA104, Metabolic Activation: RAT LIVER S-9, PHENOBARBITAL AND BETA-NAPHTHOFLAVONE, Method: PREINCUBATION inactive; negative | Test System: AMES SALMONELLA TYPHIMURIUM, Strain/Indicator: TA1535, Metabolic Activation: HAMSTER, LIVER, S-9, AROCLOR 1254, Method: STANDARD PLATE inactive; negative | Test System: AMES SALMONELLA TYPHIMURIUM, Strain/Indicator: TA1535, Metabolic Activation: NONE, Method: PREINCUBATION inactive; negative | [5] inactive; negative | Test System: AMES SALMONELLA TYPHIMURIUM, Strain/Indicator: TA1535, Metabolic Activation: RAT LIVER S-9, PHENOBARBITAL AND BETA-NAPHTHOFLAVONE, Method: PREINCUBATION inactive; negative | [6] inactive; negative | Test System: AMES SALMONELLA TYPHIMURIUM, Strain/Indicator: TA1537, Metabolic Activation: HAMSTER, LIVER, S-9, AROCLOR 1254, Method: STANDARD PLATE inactive; negative | Test System: AMES SALMONELLA TYPHIMURIUM, Strain/Indicator: TA1537, Metabolic Activation: NONE, Method: PREINCUBATION inactive; negative | [7] inactive; negative | Test System: AMES SALMONELLA TYPHIMURIUM, Strain/Indicator: TA1537, Metabolic Activation: RAT LIVER S-9, PHENOBARBITAL AND BETA-NAPHTHOFLAVONE, Method: PREINCUBATION inactive; negative | [8] inactive; negative | Test System: AMES SALMONELLA TYPHIMURIUM, Strain/Indicator: TA1538, Metabolic Activation: HAMSTER, LIVER, S-9, AROCLOR 1254, Method: STANDARD PLATE inactive; negative | [9] inactive; negative | [10] inactive; negative | Test System: E.COLI, Strain/Indicator: WP2UVRA/PKM101, Metabolic Activation: NONE, Method: PREINCUBATION inactive; negative | Test System: E.COLI, Strain/Indicator: WP2UVRA/PKM101, Metabolic Activation: RAT LIVER S-9, PHENOBARBITAL AND BETA-NAPHTHOFLAVONE, Method: PREINCUBATION inactive; negative | Test System: E.COLI, Strain/Indicator: WP2UVRA, Metabolic Activation: NONE, Method: PREINCUBATION inactive; negative | Test System: E.COLI, Strain/Indicator: WP2UVRA, Metabolic Activation: RAT LIVER S-9, PHENOBARBITAL AND BETA-NAPHTHOFLAVONE, Method: PREINCUBATION inactive; negative | Test System: MOUSE LYMPHOMA, Strain/Indicator: L5178Y (TK+/TK-), Metabolic Activation: NONE, Method: SUSPENSION/PLATE inactive; negative. reevaluation of results: negative | Test System: MOUSE LYMPHOMA, Strain/Indicator: L5178Y (TK+/TK-), Metabolic Activation: RAT, LIVER, S-9, AROCLOR 1254, Method: SUSPENSION/PLATE inactive; negative. reevaluation of results: equivocal | Test System: UDS RODENT HEPATOCYTES, Strain/Indicator: THY INCORP (NON-S-PHASE), Metabolic Activation: NONE, Method: AUTORADIOGRAPHY inactive; negative

O=S(O)(O)=S
inactive: [1] inactive; negative | [2] inactive; negative | [3] inactive; negative | [4] inactive; negative | [5] inactive; negative | [6] inactive; negative | [7] inactive; negative | [8] inactive; negative | [9] inactive; negative | [10] inactive; negative | Test System: E. COLI, Strain/Indicator: WP2, Metabolic Activation: NONE, Method: STANDARD PLATE inactive; negative | Test System: E. COLI, Strain/Indicator: WP2, Metabolic Activation: RAT, LIVER, S-9, AROCLOR 1254, Method: STANDARD PLATE inactive; negative

CCCc1cc(=O)oc2c3c(c4c(c12)OC(C)(C)C=C4)O[C@H](C)[C@@H](C)[C@H]3O
inactive: Test System: Mouse lymphoma, Strain/Indicator: L5178Y (tk+/tk-), Metabolic Activation: None, Method: Suspension/plate inactive; negative | Test System: Mouse lymphoma, Strain/Indicator: L5178Y (tk+/tk-), Metabolic Activation: Rat, Liver, S-9, Aroclor 1254, Method: Suspension/plate inactive; negative

CCN(CC)CC#CC(C)(C)OC(=O)C(O)(c1ccccc1)C1CCCCC1 (stereo not drawn)
inactive: [1] inactive; negative | Test System: AMES SALMONELLA TYPHIMURIUM, Strain/Indicator: TA98, Metabolic Activation: RAT, LIVER, S-9, PHENOBARBITAL AND 5,6-BENZOFLAVONE, Method: STANDARD PLATE inactive; negative | [3] inactive; negative | Test System: AMES SALMONELLA TYPHIMURIUM, Strain/Indicator: TA100, Metabolic Activation: RAT, LIVER, S-9, PHENOBARBITAL AND 5,6-BENZOFLAVONE, Method: STANDARD PLATE inactive; negative | [5] inactive; negative | Test System: AMES SALMONELLA TYPHIMURIUM, Strain/Indicator: TA1535, Metabolic Activation: RAT, LIVER, S-9, PHENOBARBITAL AND 5,6-BENZOFLAVONE, Method: STANDARD PLATE inactive; negative | [7] inactive; negative | Test System: AMES SALMONELLA TYPHIMURIUM, Strain/Indicator: TA1537, Metabolic Activation: RAT, LIVER, S-9, PHENOBARBITAL AND 5,6-BENZOFLAVONE, Method: STANDARD PLATE inactive; negative | Test System: E. COLI, Strain/Indicator: WP2 UVRA, Metabolic Activation: NONE, Method: STANDARD PLATE inactive; negative | Test System: E. COLI, Strain/Indicator: WP2 UVRA, Metabolic Activation: RAT, LIVER, S-9, PHENOBARBITAL AND 5,6-BENZOFLAVONE, Method: STANDARD PLATE inactive; negative
